Reference: patent publication US8673371B2, “Composition for treating vitiligo or canities comprising extract from sophora japonica as active ingredient” (Keimyung University Industry Academic Cooperation Foundation, priority 2010, dated 2014)

What was measured:
[1] = Electron donating ability (Blois' method, DPPH)
Method: Electron donating ability was measured according to the Blois' method (Blois 1958). Freeze-dried powder of Sophora japonica methanol extract was dissolved in DMSO at concentrations of 100, 500 and 1,000 μg/mL. After taking 1 mL to a test tube and adding 4 mL of 4×10^−4 M DPPH solution, followed by agitating in a water bath of 60° C. for 10 seconds and allowing to stand at room temperature for 20 minutes, absorbance was measured at 525 nm. For the non-extract-treated group, 1 mL of methanol was added instead of the sample. Electron donating ability was calculated from the difference in absorbance relative to the non-treated group. The synthetic antioxidant BHT was used as positive control.

tyrosinase [2] = target: T1, tyrosinase (Mus musculus, UniProt P11344); assay: Activity of cell-extracted tyrosinase; assay type: biochemical, C57BL/6 mouse; conditions: 12.5 μg/mL, Melan-a cell extract
T1 construct: the cells were lysed by adding 200 μL of 1% Triton X-100 solution; endogenous in cells; host or cells: Melan-a cells (immortalized C57BL/6 mouse melanocytes)
T1 sequence (P11344 19-533): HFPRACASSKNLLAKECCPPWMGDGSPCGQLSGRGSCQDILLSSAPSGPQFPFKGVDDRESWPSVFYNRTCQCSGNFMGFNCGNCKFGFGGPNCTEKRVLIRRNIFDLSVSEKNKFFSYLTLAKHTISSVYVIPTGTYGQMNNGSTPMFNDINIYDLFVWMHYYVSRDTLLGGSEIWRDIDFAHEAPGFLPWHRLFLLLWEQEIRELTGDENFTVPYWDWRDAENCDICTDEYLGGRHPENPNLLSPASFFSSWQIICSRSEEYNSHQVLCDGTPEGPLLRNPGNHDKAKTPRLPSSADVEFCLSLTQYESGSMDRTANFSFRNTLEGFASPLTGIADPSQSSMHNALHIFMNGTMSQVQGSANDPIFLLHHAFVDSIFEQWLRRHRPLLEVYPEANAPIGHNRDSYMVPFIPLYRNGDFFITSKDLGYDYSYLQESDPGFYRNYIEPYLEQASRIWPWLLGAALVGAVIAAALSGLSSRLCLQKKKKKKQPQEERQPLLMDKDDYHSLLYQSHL
Method: After washing with PBS and lysing by adding 200 μL of 1% Triton X-100, the lysed cells were transferred to an e-tube and vortexed on ice with 10-minute intervals. After about 1 hour, centrifuge was carried out at 4° C. and 14,000 rpm for 20 minutes. 50 μL of the supernatant was mixed with 49 μL of 0.1 M phosphate buffer (pH 6.8) and 1 μL of Sophora japonica methanol extract at various concentrations (6.25, 12.5, 25 and 50 μg/mL). After allowing to stand for 1 hour, 100 μL of L-DOPA was added. Then, after incubation in a 10% CO2 incubator at 37° C. for 60 minutes, absorbance was measured at 490 nm. IBMX was used as positive control.

TRP-1 mRNA = assay: RT-PCR, expression of TRP-1 mRNA; assay type: cell-based, C57BL/6 mouse; conditions: 12.5 μg/mL, Melan-a cells, not significant
Method: (§1) Total RNA was prepared using Trizol reagent (Invitrogen, Caylsbad, Calif.) according to the manufacturer's instructions. 5 μg of total RNA was subjected to reverse transcription with 8 μL of M-MLV RT 5× buffer, 3 μL of 10 mM dNTPs, 0.45 μL of 10,000 U RNase inhibitor, 0.3 μL of 50,000 U M-MLV reverse transcriptase (Promega, Madison, USA) and 1.5 μL of 50 pmol/μL oligo dT (Bioneer, Daejeon, Korea). Single-stranded cDNA was amplified by PCR in a reaction solution containing 4 μL of 5× green Go Taq flexi buffer, 0.4 μL of 10 mM dNTPs, 0.1 μL of 500 U Taq polymerase, 1.2 μL of 25 mM MgCl2 (Promega, Madison, USA) and 0.4 μL of 20 pmol/μL sense and antisense primers of tyrosinase, […] or β-actin. Sequences of the primers used in the PCR and expected PCR product size are shown in Table 1. β-actin was used as internal standard (51° C., 30 cycles), and test substances were tyrosinase (56° C., 28 cycles), TRP-1 (56° C., 28 cycles), TRP-2 (64° C., 28 cycles) and MITF-M (54° C., 30 cycles). The PCR product was analyzed by electrophoresis on 1.2% agarose gel.

MITF-M mRNA = assay: RT-PCR, expression of MITF-M mRNA; assay type: cell-based, C57BL/6 mouse; conditions: 12.5 μg/mL, Melan-a cells
Method: as §1

Melan-a cells [3] = assay: Melanin producing ability; assay type: cell-based, C57BL/6 mouse; conditions: 12.5 μg/mL
Method: Then, after treating again with the Sophora japonica methanol extract, the cells were further cultured for 72 hours. After dissolving melanin with 1 N NaOH solution, absorbance was measured at 490 nm. IBMX was used as positive control.

Melan-a cells [4] = conditions: mouse, 48 h
Method: Melan-a cells, which are immortalized cells derived from C57BL/6 mouse, were cultured in a 37° C., 10% CO2 incubator using RPMI-1640 medium containing 10% fetal bovine serum (FBS) 1% penicillin/streptomycin (P/S) and 200 nM 12-O-tetradecanoylphorbol 13-acetate (TPA).
The MTT assay is a typical technique of measuring cell viability. Upon absorption into cells, 3-(4,5-Dimethylthiazol-2-yl)-2,5-diphenyltetrazolium bromide (MTT) is reduced by succinate dehydronase in mitochondria to formazan. Thus, accumulation of this substance in cells is a measure of mitochondrial activity or, in a broader sense, cell activity. Melan-a cells were stabilized in RPMI-1640 medium containing 10% FBS, 1% P/S and 200 nM TPA in a 10% CO2 incubator at 37° C. for 48 hours before carrying out experiment. The Melan-a cells were seeded on a 96 well plate (0.5×10^4 cells/well) and cultured in a 10% CO2 incubator at 37° C. for 24 hours. […] After dissolving the cells in a plate shaker for 15 minutes, absorbance was measured at 540 nm using an ELISA reader. Cell proliferation was calculated according to the following equation: Cell proliferation (%)=(Absorbance of extract-treated group/Absorbance of non-extract-treated group)×100.

tyrosinase mRNA = assay: RT-PCR, expression of tyrosinase mRNA; assay type: cell-based, C57BL/6 mouse; conditions: 12.5 μg/mL, Melan-a cells
Method: as §1

TRP-2 mRNA = assay: RT-PCR, expression of TRP-2 mRNA; assay type: cell-based, C57BL/6 mouse; conditions: 12.5 μg/mL, Melan-a cells
Method: as §1

tyrosinase [5] = assay: Intracellular tyrosinase activity; assay type: cell-based, C57BL/6 mouse; conditions: 12.5 μg/mL, Melan-a cells
Method: 4-5. […] Then, after removing the medium and washing with PBS, the cells were lysed by adding 200 μL of 1% Triton X-100 solution. The lysed cells were transferred to an e-tube and vortexed on ice with 10-minute intervals. After about 1 hour, centrifuge was carried out at 4° C. and 14,000 rpm for 20 minutes. The supernatant was subjected to tyrosinase activity measurement. Absorbance was measured using a protein assay solution (Bio-Rad, USA), and the protein quantity was calculated. Cell extract containing 40 μg of protein was mixed with the test substance to a total volume of 100 μL. After adding 100 μL of L-DOPA, followed by incubation in a 10% CO2 incubator at 37° C. for 60 minutes, absorbance was measured at 490 nm. IBMX was used as positive control.

Higher activity of cell-extracted tyrosinase compared with the control (tyrosinase [2]) | Maximum permissible level (MPL) (Melan-a cells [4]) | Structure (SMILES) | Electron donating ability, concentration dependence ([1]; 100, 500 and 1,000 μg/mL) | Electron donating ability ([1]; at 1,000 μg/mL) | Higher expression of TRP-1 mRNA compared with the control (TRP-1 mRNA) | Higher expression of MITF-M mRNA compared with the control (MITF-M mRNA) | Higher melanin content compared with the control (Melan-a cells [3]) | Higher expression of tyrosinase mRNA compared with the control (tyrosinase mRNA) | Higher expression of TRP-2 mRNA compared with the control (TRP-2 mRNA) | Higher intracellular tyrosinase activity compared with the control (tyrosinase [5])
 |  | Cc1cc(C(C)(C)C)c(O)c(C(C)(C)C)c1 [BHT, 2,6-di-tert-butylated hydroxytoluene] | positive (+) concentration-dependent relationship | 85.0% |  |  |  |  |  | 
21.2% | 12.5 µg/mL | CC(C)Cn1c(=O)n(C)c(=O)c2[nH]cnc21 [IBMX, 3-isobutyl-1-methylxanthine] |  |  | 2% | 74% | 16.7% | 0.31% | 9% | 22.2%
